Data: patent US11358939B2, “1,4-benzodiazepin-2-one derivatives and use thereof” (priority 2017, dated 2022)

What was measured:
Assay type in all cases: in vivo
[1] = system: food consumption by rats; assay: Action on appetite, Anorexia method (liquid food consumption); details: for Amount of consumed liquid food during 30 min in ml / Food consumption, % of control: dose 0,1 mg/kg intraperitoneally; for Reduction in appetite and food consumption compared to control: Table 6 dose 0,1 mg/kg
Protocol: Studies of pharmacological activity of 3-arylamino-1,3-dihydro-2H-benzo[e][1,4]diazepin-2-ones, namely, their action of appetite, assessment of antihypoxic and antidepressant activity was performed in white male rats with body mass 150-180 g and male mice with body mass 18-22 g. The animals were kept on a standard laboratory diet and natural lighting. Animals of control group were given a water-Tween suspension. Test compounds were administered in a suspension with Tween-80 Reference drugs were the hormone leptin, in 0.0002 mg/kg dose, and a well-known antidepressant amitriptyline (solution for injections in 1 ml vials. Test compounds and the water-Tween suspension were administered in a dose of 0.2 ml/100 g of rat body mass.
The action of the compounds on rat appetite was studied using «norexia» method. For 2 weeks in an experimental equipment the rats were conditioned to consume liquid food. Then a water-Tween suspension of test articles was administered intraperitoneally to conditioned animals one day before the experiment. After 40 minutes the animals were allowed access to liquid food and the amount of consumed food (in ml) of every rat was registered every 30 minutes for 3 hours. The next day after 2 hours of deprivation the rats in control group were administered a water-Tween suspension intraperitoneally, while the test group was administered the test articles. After 40 minutes the animals were allowed access to liquid food and the amount of consumed food (in ml) of every rat was registered every 30 minutes for 3 hours. Then all food consumption values for each rat were summed and compared to control values. The control group has consumed on average 7 ml of liquid food per 30 minutes. The effect was calculated in percentage compared to control.

[2] = system: writhes induced by intraperitoneal acetic acid; assay: Analgesic activity, acetic acid-induced writhing test (peripheral pain model); details: for Writhing inhibition, % of control in 1 mg/kg dose: 1 mg/kg intraperitoneally, 40 min before 0.75% acetic acid; for ED50: ip; for ED50 / ED50, analgesic activity in writhing test: intraperitoneal, Prozorovsky method
Protocol: Assessment of analgesic activity was performed in a model of peripheral pain based on chemical pain induced by intraperitoneal administration of acetic acid, leading to involuntary contractions of abdominal muscles, termed “writhes”, accompanied by hind leg extension and spine arching. The writhes were induced by 0.75% solution of acetic acid, which was administered intraperitoneally 40 min after intraperitoneal administration of test compounds in 0.001-5 mg/kg dose range. […] Analgesic activity was assessed by the ability of the compounds to reduce the number of writhes in test group compared to control group, and indicated as percentage using the following formula: AA=(Wc−Wt/Wc)×100%,
where AA—analgesic activity in %;
Wc—average number of writhes in control group;
Wt—average number of writhes in test group
Test compounds were studied in comparison with the reference drug sodium diclofenac in 10 mg/kg dose. ED50 was calculated using Prozorovsky method.

[3] = system: number of drinking actions despite electric shock; assay: Anxiolytic activity, conflict situation model (drinking versus electric shock); details: for Anxiolytic activity assessed using conflict situation method (5 mg/kg): number of drinking actions despite electric shock, 30 min before test
Protocol: Anxiolytic activity was assessed in a model of conflict situation based on the conflict of two reflexes (drinking and defensive) when drinking water from a water fountain. Anxiolytic activity was assessed by the number of drinking actions despite electric shock.
(§1) Diazepam drug was used as the reference drug. All test compounds and the reference drug diazepam were administered in a suspension with Tween-80 in 5 mg/kg dose 30 min before the start of experiments.

[4] = system: general movement activity of animals; assay: General movement activity, open field test; details: for General movement activity (5 mg/kg): open field 3 min, sum of rearings, transitions, explored holes, 30 min before test; for Sedative properties (words, from general movement activity versus control): 5 mg/kg
Protocol: General movement activity was assessed in an open field test. While the animals were in the open field (3 min), the number of rearings (vertical movement activity), transitions between squares (horizontal movement activity) and the number of explored holes (exploratory activity) were registered. The sum of these values is general movement activity.
as §1

## CC(=O)c1cccc(NC2N=C(c3ccccc3F)c3cc([N+](=O)[O-])ccc3NC2=O)c1 (centres unmarked) [Compound 348]
[1]
  Amount of consumed liquid food during 30 min in ml: 21,4 ± 4,9 ml
  Food consumption, % of control: 284%

## COC(=O)CN1C(=O)C(Nc2cccc([N+](=O)[O-])c2)N=C(c2ccccc2)c2cc([N+](=O)[O-])ccc21 (centres unmarked) [Compound 282]
[2]; compounds Ib
  Writhing inhibition, % of control in 1 mg/kg dose: 59%
[3]
  Anxiolytic activity assessed using conflict situation method (5 mg/kg): 44.7 ± 3.9
[4]
  General movement activity (5 mg/kg): 19.0 ± 2.4

## COC(=O)CN1C(=O)C(Nc2cccc([N+](=O)[O-])c2)N=C(c2ccccc2)c2cc(Cl)ccc21 (centres unmarked) [Compound 174]
[2]; compounds Ib
  Writhing inhibition, % of control in 1 mg/kg dose: 58%
[3]
  Anxiolytic activity assessed using conflict situation method (5 mg/kg): 60.6 ± 7.0
[4]
  General movement activity (5 mg/kg): 18.0 ± 2.4

## O=C1Nc2ccc(Cl)cc2C(c2ccccc2)=NC1Nc1ccccc1Br (centres unmarked) [Compound 161]
[1]
  Amount of consumed liquid food during 30 min in ml: 5,5 ± 2,4 ml
  Food consumption, % of control: 74%

## COc1ccc2c(c1)c(CC(=O)O)c(C)n2C(=O)c1ccc(Cl)cc1 [indomethacin, reference compound]
[2]
  ED50: 1.5 ± 0.26 mg/kg

## CC(=O)c1ccccc1NC1N=C(c2ccccc2F)c2cc([N+](=O)[O-])ccc2NC1=O (centres unmarked) [Compound 347]
[1]
  Amount of consumed liquid food during 30 min in ml: 6,5 ± 2,7 ml
  Food consumption, % of control: 105%

## O=C1Nc2ccc([N+](=O)[O-])cc2C(c2ccccc2Cl)=NC1Nc1ccccc1Br (centres unmarked) [Compound 320]
[1]
  Amount of consumed liquid food during 30 min in ml: 6,5 ± 3,4 ml
  Food consumption, % of control: 88%

## CCOC1N=C(c2ccccc2)c2cc(Cl)ccc2N(CC(=O)OC)C1=O (centres unmarked) [Compound 21]
[2]; compounds Ia
  Writhing inhibition, % of control in 1 mg/kg dose: 62%
[2]
  ED50, analgesic activity in writhing test: 0.29 ± 0.025 mg/kg

## COC(=O)CN1C(=O)C(Nc2ccc(C(C)=O)cc2)N=C(c2ccccc2F)c2cc(Br)ccc21 (centres unmarked) [Compound 91]
[2]; compounds Ib
  Writhing inhibition, % of control in 1 mg/kg dose: 62%
[3]
  Anxiolytic activity assessed using conflict situation method (5 mg/kg): 4.9 ± 2.2
[4]
  General movement activity (5 mg/kg): 25.2 ± 2.1

## O=C(O)Cc1ccccc1Nc1c(Cl)cccc1Cl [sodium diclofenac, reference compound]
[2]
  ED50: 10 ± 1.8 mg/kg

## COC(=O)CN1C(=O)C(Nc2ccc([N+](=O)[O-])cc2)N=C(c2ccccc2)c2cc(OC(F)(F)F)ccc21 (centres unmarked) [Compound 229]
[2]; compounds Ib
  Writhing inhibition, % of control in 1 mg/kg dose: 59%
[3]
  Anxiolytic activity assessed using conflict situation method (5 mg/kg): 38.7 ± 2.6
[4]
  General movement activity (5 mg/kg): 19.0 ± 1.0

## O=C1Nc2ccc([N+](=O)[O-])cc2C(c2ccccc2)=NC1Nc1cccc(Cl)c1 (centres unmarked) [Compound 249]
[1]
  Amount of consumed liquid food during 30 min in ml: 5,1 ± 2,2 ml
  Food consumption, % of control: 69%

## O=C1Nc2ccc(OC(F)(F)F)cc2C(c2ccccc2)=NC1Nc1ccc(Cl)cc1 (centres unmarked) [Compound 196]
[1]
  Amount of consumed liquid food during 30 min in ml: 6,5 ± 3,2 ml
  Food consumption, % of control: 88%

## COC(=O)CN1C(=O)C(Nc2cccc(Br)c2)N=C(c2ccccc2Cl)c2cc([N+](=O)[O-])ccc21 (centres unmarked) [Compound 327]
[2]; compounds Ib
  Writhing inhibition, % of control in 1 mg/kg dose: 70%
[3]
  Anxiolytic activity assessed using conflict situation method (5 mg/kg): 43.4 ± 3.2
[4]
  Sedative properties (words, from general movement activity versus control): don't have sedative properties
  General movement activity (5 mg/kg): 45.0 ± 3.7

## COC(=O)CN1C(=O)C(Nc2ccccc2[N+](=O)[O-])N=C(c2ccccc2)c2cc(Cl)ccc21 (centres unmarked) [Compound 173]
[2]; compounds Ib
  Writhing inhibition, % of control in 1 mg/kg dose: 55%
[3]; 5 mg/kg
  Anxiolytic properties: potent anxiolytic properties
[3]
  Anxiolytic activity assessed using conflict situation method (5 mg/kg): 120.5 ± 10.3
[4]
  General movement activity (5 mg/kg): 15.0 ± 1.3

## COC(=O)CN1C(=O)C(Nc2ccc(C(F)(F)F)cc2)N=C(c2ccccc2F)c2cc([N+](=O)[O-])ccc21 (centres unmarked) [Compound 400]
[2]; compounds Ib
  Writhing inhibition, % of control in 1 mg/kg dose: 60%
[3]
  Anxiolytic activity assessed using conflict situation method (5 mg/kg): 32.2 ± 3.3
[4]
  General movement activity (5 mg/kg): 36.5 ± 3.3

## COC(=O)CN1C(=O)C(Nc2ccc([N+](=O)[O-])cc2)N=C(c2ccccc2)c2cc([N+](=O)[O-])ccc21 (centres unmarked) [Compound 283]
[2]; compounds Ib
  Writhing inhibition, % of control in 1 mg/kg dose: 54%
[3]
  Anxiolytic activity assessed using conflict situation method (5 mg/kg): 45.1 ± 2.6
[4]
  General movement activity (5 mg/kg): 22.0 ± 2.0

## COC(=O)CN1C(=O)C(Nc2ccccc2C(F)(F)F)N=C(c2ccccc2F)c2cc([N+](=O)[O-])ccc21 (centres unmarked) [Compound 398]
[2]; compounds Ib
  Writhing inhibition, % of control in 1 mg/kg dose: 68%
[3]
  Anxiolytic activity assessed using conflict situation method (5 mg/kg): 33.1 ± 3.2
[4]
  General movement activity (5 mg/kg): 28.2 ± 3.3

## CN1C(=O)CN=C(c2ccccc2)c2cc(Cl)ccc21 [Diazepam, reference compound]
[3]
  Anxiolytic activity assessed using conflict situation method (5 mg/kg): 120.0 ± 4.9
[4]
  General movement activity (5 mg/kg): 32.5 ± 2.8

## COC(=O)CN1C(=O)C(Nc2cccc([N+](=O)[O-])c2)N=C(c2ccccc2)c2cc(OC(F)(F)F)ccc21 (centres unmarked) [Compound 228]
[2]; compounds Ib
  Writhing inhibition, % of control in 1 mg/kg dose: 62%
[3]
  Anxiolytic activity assessed using conflict situation method (5 mg/kg): 40.6 ± 3.9
[4]
  General movement activity (5 mg/kg): 17.0 ± 2.4

## O=C1Nc2ccc([N+](=O)[O-])cc2C(c2ccccc2F)=NC1Nc1ccc(Cl)cc1 (centres unmarked) [Compound 358]
[1]
  Effect on appetite: hyperphagic effect
  Amount of consumed liquid food during 30 min in ml: 6,7 ± 3,2 ml
  Food consumption, % of control: 90%

## CCCCOC1N=C(c2ccccc2)c2cc(Cl)ccc2N(CC(=O)OC)C1=O (centres unmarked) [Compound 23]
[2]; compounds Ia
  Writhing inhibition, % of control in 1 mg/kg dose: 52%

## COC(=O)CN1C(=O)C(Nc2ccccc2Br)N=C(c2ccccc2Cl)c2cc([N+](=O)[O-])ccc21 (centres unmarked) [Compound 326]
[2]; compounds Ib
  Writhing inhibition, % of control in 1 mg/kg dose: 62%
[3]
  Anxiolytic activity assessed using conflict situation method (5 mg/kg): 45.1 ± 2.6
[4]
  General movement activity (5 mg/kg): 22.0 ± 2.0

## COC(=O)CN1C(=O)C(Nc2cccc(Cl)c2)N=C(c2ccccc2F)c2cc([N+](=O)[O-])ccc21 (centres unmarked) [Compound 363]
[2]; compounds Ib
  Writhing inhibition, % of control in 1 mg/kg dose: 70%
[3]
  Anxiolytic activity assessed using conflict situation method (5 mg/kg): 46.4 ± 4.2
[4]
  Sedative properties (words, from general movement activity versus control): don't have sedative properties
  General movement activity (5 mg/kg): 41.0 ± 3.9

## O=C1Nc2ccc(Cl)cc2C(c2ccccc2)=NC1Nc1ccccc1F (centres unmarked) [Compound 152]
[1]
  Amount of consumed liquid food during 30 min in ml: 3,5 ± 1,3 ml
  Food consumption, % of control: 47%

## O=C1Nc2ccc(OC(F)(F)F)cc2C(c2ccccc2)=NC1Nc1cccc(Cl)c1 (centres unmarked) [Compound 195]
[1]
  Amount of consumed liquid food during 30 min in ml: 5,7 ± 2,2 ml
  Food consumption, % of control: 77%

## O=C1Nc2ccc([N+](=O)[O-])cc2C(c2ccccc2Cl)=NC1Nc1ccc(Br)cc1 (centres unmarked) [Compound 322]
[1]
  Amount of consumed liquid food during 30 min in ml: 7,8 ± 2,7 ml
  Food consumption, % of control: 105%

## O=C1Nc2ccc([N+](=O)[O-])cc2C(c2ccccc2Cl)=NC1Nc1cccc(Br)c1 (centres unmarked) [Compound 321]
[1]
  Amount of consumed liquid food during 30 min in ml: 6,1 ± 3,2 ml
  Food consumption, % of control: 82%

## CCCOC1N=C(c2ccccc2)c2cc(Cl)ccc2N(CC(=O)OC)C1=O (centres unmarked) [Compound 22]
[2]; compounds Ia
  Writhing inhibition, % of control in 1 mg/kg dose: 70%
[2]
  ED50, analgesic activity in writhing test: 0.08 ± 0.02 mg/kg

## CC(=O)c1ccc(NC2N=C(c3ccccc3F)c3cc([N+](=O)[O-])ccc3NC2=O)cc1 (centres unmarked) [Compound 349]
[1]
  Amount of consumed liquid food during 30 min in ml: 14 ± 1,8 ml
  Food consumption, % of control: 189%

## O=C1Nc2ccc([N+](=O)[O-])cc2C(c2ccccc2F)=NC1Nc1ccccc1Cl (centres unmarked) [Compound 356]
[1]
  Reduction in appetite and food consumption compared to control: 39%
  Amount of consumed liquid food during 30 min in ml: 2,9 ± 2,1 ml
  Food consumption, % of control: 39%

## O=C1Nc2ccc(Cl)cc2C(c2ccccc2)=NC1Nc1cccc(Br)c1 (centres unmarked) [Compound 162]
[1]
  Amount of consumed liquid food during 30 min in ml: 5,1 ± 2,2 ml
  Food consumption, % of control: 69%

## O=C1Nc2ccc(Cl)cc2C(c2ccccc2)=NC1Nc1ccc(Br)cc1 (centres unmarked) [Compound 163]
[1]
  Amount of consumed liquid food during 30 min in ml: 6,8 ± 2,7 ml
  Food consumption, % of control: 92%

## O=C1Nc2ccc([N+](=O)[O-])cc2C(c2ccccc2)=NC1Nc1ccccc1Cl (centres unmarked) [Compound 248]
[1]
  Reduction in appetite and food consumption compared to control: 41%
  Amount of consumed liquid food during 30 min in ml: 3,1 ± 2,4 ml
  Food consumption, % of control: 41%
